For 24 molecules, inhibition results are on record in patent publication US9255094B2, “Pyrido[4,3-B]indoles and methods of use” (Medivation Technologies, Inc., priority 2009, dated 2016).

Assay [1] deals with T1, human recombinant serotonin (5-Hydroxytryptamine) 5-HT2A receptor (Homo sapiens, UniProt P28223).
T1 construct: expressed in transfected cells; host or cells: Chinese hamster ovary (CHO-K1) cells
The experiment in a line: Serotonin 5-HT2A radioligand binding assay ([3H]Ketanserin). Particulars: 0.5 nM [3H]Ketanserin, CHO-K1 cells; for inhibition at 1 µM: compound at 1 μM, read-out: Percent Inhibition of ligand binding, Serotonin (1 μM) 5-HT2A; for inhibition at 0.1 µM: compound at 0.1 μM, read-out: Percent Inhibition of ligand binding, Serotonin (0.1 μM) 5-HT2A. As to the method:
Compounds of the invention were incubated with 0.5 nM [^3H]Ketanserin for 60 min at 25° C. Non-specific binding was estimated in the presence of 1 μM Mianserin. Receptor proteins were filtered and washed, the filters were then counted to determine [^3H]Ketanserin specifically bound. Compounds were screened at 1 μM or lower, using 1% DMSO as vehicle. Biochemical assay results are presented as the percent inhibition of specific binding in Table 4.

The target in assay [2] is T2, human recombinant serotonin (5-Hydroxytryptamine) 5-HT2C receptor (Homo sapiens, UniProt P28335).
T2 construct: expressed in transfected cells; host or cells: Chinese hamster ovary (CHO-K1) cells
T2 sequence (P28335 33-458): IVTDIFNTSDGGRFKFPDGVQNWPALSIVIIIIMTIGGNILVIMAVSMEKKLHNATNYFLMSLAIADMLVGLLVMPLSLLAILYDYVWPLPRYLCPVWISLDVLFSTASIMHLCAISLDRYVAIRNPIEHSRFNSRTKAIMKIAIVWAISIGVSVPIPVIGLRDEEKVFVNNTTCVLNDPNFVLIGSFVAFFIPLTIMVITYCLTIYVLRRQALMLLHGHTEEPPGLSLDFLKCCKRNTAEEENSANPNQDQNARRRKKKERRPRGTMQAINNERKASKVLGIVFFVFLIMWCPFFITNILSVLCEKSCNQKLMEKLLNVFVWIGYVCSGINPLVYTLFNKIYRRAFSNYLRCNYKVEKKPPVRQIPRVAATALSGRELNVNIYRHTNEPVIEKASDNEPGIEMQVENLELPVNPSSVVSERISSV
Nature of the assay: Serotonin 5-HT2C radioligand binding assay ([3H]Mesulergine). Particulars: compound at 0.1 μM; 1 nM [3H]Mesulergine; CHO-K1 cells; read-out: Percent Inhibition of ligand binding, Serotonin (0.1 μM) 5-HT2C. As to the method:
Compounds of the invention were incubated with 1 nM [^3H]Mesulergine for 60 min at 25° C. Non-specific binding was estimated in the presence of 1 μM Mianserin. Receptor proteins were filtered and washed, the filters were then counted to determine [^3H]Mesulergine specifically bound. Compounds were screened at 1 μM or lower, using 1% DMSO as vehicle. Biochemical assay results are presented as the percent inhibition of specific binding in Table 4.

Assay [3] addresses human recombinant serotonin (5-Hydroxytryptamine) 5-HT7 receptor (Homo sapiens, UniProt P34969). The experiment in a line: Serotonin 5-HT7 radioligand binding assay ([3H]LSD). Particulars: compound at 0.1 μM; 5.5 nM [3H]LSD; CHO cells; read-out: Percent Inhibition of ligand binding, Serotonin (0.1 μM) 5-HT7. As to the method:
Compounds of invention were incubated with 5.5 nM [^3H] Lysergic acid diethylamide (LSD) for 2 h at 25° C. […] Receptor proteins were filtered and washed, the filters were then counted to determine [^3H]LSD specifically bound. Compounds were screened at 1 μM or lower, using 1% DMSO as vehicle. Biochemical assay results are presented as the percent inhibition of specific binding in Table 4.

Assay [4] concerns the target T3, human recombinant serotonin (5-Hydroxytryptamine) 5-HT6 receptor (Homo sapiens, UniProt P50406).
T3 construct: expressed in transfected cells; host or cells: human HeLa cells
Nature of the assay: Serotonin 5-HT6 radioligand binding assay ([3H]LSD). Particulars: compound at 0.1 μM, HeLa cells, read-out: Percent Inhibition of ligand binding, Serotonin (0.1 μM) 5-HT6. As to the method: Compounds of the invention were incubated with 1.5 nM [3H]Lysergic acid diethylamide (LSD) for 120 min at 37° C. […] Receptor proteins were filtered and washed, the filters were then counted to determine [3H]LSD specifically bound. Compounds were screened at 1 μM or lower, using 1% DMSO as vehicle. Biochemical assay results are presented as the percent inhibition of specific binding in Table 4.

Each structure is given as a SMILES string.

T1 sequence (P28223 whole entry): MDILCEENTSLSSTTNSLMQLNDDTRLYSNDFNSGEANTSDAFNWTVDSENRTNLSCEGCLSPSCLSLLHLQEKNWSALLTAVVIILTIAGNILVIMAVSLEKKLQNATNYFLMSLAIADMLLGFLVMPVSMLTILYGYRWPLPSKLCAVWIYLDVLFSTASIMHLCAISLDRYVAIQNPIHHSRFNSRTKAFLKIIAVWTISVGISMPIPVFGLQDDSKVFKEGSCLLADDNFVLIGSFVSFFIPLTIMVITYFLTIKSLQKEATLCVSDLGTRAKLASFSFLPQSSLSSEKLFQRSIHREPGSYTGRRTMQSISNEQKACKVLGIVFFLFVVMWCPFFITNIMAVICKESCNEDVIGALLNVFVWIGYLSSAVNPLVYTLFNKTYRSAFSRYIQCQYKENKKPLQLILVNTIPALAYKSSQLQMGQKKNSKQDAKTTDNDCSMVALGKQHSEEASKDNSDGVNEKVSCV
human recombinant serotonin (5-Hydroxytryptamine) 5-HT7 receptor, sequence (P34969 whole entry): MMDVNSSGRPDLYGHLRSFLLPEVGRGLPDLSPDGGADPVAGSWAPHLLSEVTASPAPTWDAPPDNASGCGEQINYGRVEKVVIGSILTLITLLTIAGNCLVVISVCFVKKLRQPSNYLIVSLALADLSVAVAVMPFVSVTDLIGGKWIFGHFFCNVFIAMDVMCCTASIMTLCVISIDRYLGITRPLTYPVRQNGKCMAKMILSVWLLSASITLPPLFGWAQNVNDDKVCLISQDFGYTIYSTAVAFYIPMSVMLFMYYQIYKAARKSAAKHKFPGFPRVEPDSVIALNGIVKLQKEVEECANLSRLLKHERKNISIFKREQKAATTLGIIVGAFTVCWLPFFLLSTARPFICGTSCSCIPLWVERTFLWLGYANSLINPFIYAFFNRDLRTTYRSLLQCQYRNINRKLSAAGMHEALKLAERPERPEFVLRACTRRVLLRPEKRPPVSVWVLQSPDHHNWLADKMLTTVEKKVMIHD
T3 sequence (P50406 whole entry): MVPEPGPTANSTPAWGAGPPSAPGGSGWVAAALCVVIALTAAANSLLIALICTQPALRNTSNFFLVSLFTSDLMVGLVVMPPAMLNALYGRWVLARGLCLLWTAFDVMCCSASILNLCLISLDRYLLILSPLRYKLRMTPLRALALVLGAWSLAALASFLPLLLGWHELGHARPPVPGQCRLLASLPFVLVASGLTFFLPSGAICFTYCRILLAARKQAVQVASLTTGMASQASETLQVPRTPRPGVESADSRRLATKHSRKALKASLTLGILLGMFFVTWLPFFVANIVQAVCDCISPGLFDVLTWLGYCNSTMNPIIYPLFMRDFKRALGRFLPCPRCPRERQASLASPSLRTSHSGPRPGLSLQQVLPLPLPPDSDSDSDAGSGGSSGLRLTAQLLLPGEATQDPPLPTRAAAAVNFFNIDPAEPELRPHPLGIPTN

Regarding `Cc1ccc2c(c1)c1c(n2CC(O)c2ccc(F)cc2)CCN(C)C1` (stereo not drawn) [Compound 1-2, 2-(2,8-dimethyl-3,4-dihydro-1H-pyrido[4,3-b]indol-5(2H)-yl)-1-(4-fluorophenyl)ethanol], the inhibition at 1 µM in assay [1] is 91%.

On to `CCC(O)(Cn1c2c(c3cc(C)ccc31)CN(C)CC2)c1ccc(F)cc1` (stereo not drawn) [Compound 1-5, 1-(2,8-dimethyl-3,4-dihydro-1H-pyrido[4,3-b]indol-5(2H)-yl)-2-(4-fluorophenyl)butan-2-ol], for which the inhibition at 1 µM in assay [1] is 102%.

With `CN1CCc2c(c3cc(Cl)ccc3n2CC(O)(c2ccc(F)cc2)C2CCC2)C1` (stereo not drawn) [Compound 1-6, 2-(8-chloro-2-methyl-3,4-dihydro-1H-pyrido[4,3-b]indol-5(2H)-yl)-1-cyclobutyl-1-(4-fluorophenyl)ethanol], the inhibition at 1 µM in assay [1] was found to be 97%.

For `CN1CCc2c(c3cc(F)ccc3n2CC(C)(O)c2ccncc2)C1` (stereo not drawn) [Compound 1-9, 1-(8-fluoro-2-methyl-3,4-dihydro-1H-pyrido[4,3-b]indol-5(2H)-yl)-2-(pyridin-4-yl)propan-2-ol], the inhibition at 1 µM in assay [1] stood at 77%.

As to `CN1CCc2c(c3ccc(Cl)cc3n2CC(C)(O)c2ccncc2)C1` (stereo not drawn) [Compound 1-12, 1-(7-chloro-2-methyl-3,4-dihydro-1H-pyrido[4,3-b]indol-5(2H)-yl)-2-(pyridin-4-yl)propan-2-ol], the inhibition at 1 µM in assay [1] was found to be 82%.

As for `CN1CCc2c(c3cccc(F)c3n2CC(C)(O)c2ccncc2)C1` (stereo not drawn) [Compound 1-13, 1-(6-fluoro-2-methyl-3,4-dihydro-1H-pyrido[4,3-b]indol-5(2H)-yl)-2-(pyridin-4-yl)propan-2-ol], the inhibition at 1 µM in assay [1] is 82%.

For `CN1CCc2c(c3ccccc3n2CC(C)(O)c2ccncc2)C1` (stereo not drawn) [Compound 1-14, 1-(2-methyl-3,4-dihydro-1H-pyrido[4,3-b]indol-5(2H)-yl)-2-(pyridin-4-yl)propan-2-ol], the inhibition at 1 µM in assay [1] was determined as 74%.

Turning to `COc1ccc2c(c1)c1c(n2CC(C)(O)c2ccncc2)CCN(C)C1` (stereo not drawn) [Compound 1-16, 1-(8-methoxy-2-methyl-3,4-dihydro-1H-pyrido[4,3-b]indol-5(2H)-yl)-2-(pyridin-4-yl)propan-2-ol], the inhibition at 1 µM in assay [1] is 50%.

`CN1CCc2c(c3c(Cl)c(Cl)ccc3n2CC(C)(O)c2ccncc2)C1` (stereo not drawn) [Compound 1-18, 1-(8,9-dichloro-2-methyl-3,4-dihydro-1H-pyrido[4,3-b]indol-5(2H)-yl)-2-(pyridin-4-yl)propan-2-ol]: the inhibition at 1 µM in assay [1] is 71%.

On to `CC(C)C(O)(Cn1c2c(c3cc(Cl)ccc31)CN(C)CC2)c1ccncc1` (stereo not drawn) [Compound 1-21, 1-(8-chloro-2-methyl-3,4-dihydro-1H-pyrido[4,3-b]indol-5(2H)-yl)-3-methyl-2-(pyridin-4-yl)butan-2-ol], for which the inhibition at 0.1 µM in assay [1] came to 68%.

With `Cc1ccc2c(c1)c1c(n2CC(O)(c2ccncc2)C(C)C)CCN(C)C1` (stereo not drawn) [Compound 1-22, 1-(2,8-dimethyl-3,4-dihydro-1H-pyrido[4,3-b]indol-5(2H)-yl)-3-methyl-2-(pyridin-4-yl)butan-2-ol], the inhibition at 0.1 µM in assay [1] came out at 71%.

Consider `CCC(O)(Cn1c2c(c3cc(Cl)ccc31)CN(C)CC2)c1ccncc1` (stereo not drawn) [Compound 1-23, 1-(8-chloro-2-methyl-3,4-dihydro-1H-pyrido[4,3-b]indol-5(2H)-yl)-2-(pyridin-4-yl)butan-2-ol], for which the inhibition at 0.1 µM in assay [1] was 62%.

Take `Cc1ccc2c(c1)c1c(n2CC(C)(O)c2ccncn2)CCN(C)C1` (stereo not drawn) [Compound 1-25, 1-(2,8-dimethyl-3,4-dihydro-1H-pyrido[4,3-b]indol-5(2H)-yl)-2-(pyrimidin-4-yl)propan-2-ol]: the inhibition at 0.1 µM in assay [1] was found to be 17%.

In the case of `CN1CCc2c(c3cc(Cl)ccc3n2CC(C)(O)c2ccncn2)C1` (stereo not drawn) [Compound 1-26, 1-(8-chloro-2-methyl-3,4-dihydro-1H-pyrido[4,3-b]indol-5(2H)-yl)-2-(pyrimidin-4-yl)propan-2-ol], the inhibition at 0.1 µM in assay [1] was 23%.

For the molecule `CN1CCc2c(c3cc(Cl)ccc3n2CC(C)(O)c2cnccn2)C1` (stereo not drawn) [Compound 1-27, 1-(8-chloro-2-methyl-3,4-dihydro-1H-pyrido[4,3-b]indol-5(2H)-yl)-2-(pyrazin-2-yl)propan-2-ol], in assay [1], the inhibition at 0.1 µM came to 40%.

Regarding `Cc1ccc2c(c1)c1c(n2CC(C)(O)c2cnccn2)CCN(C)C1` (stereo not drawn) [Compound 1-28, 1-(2,8-dimethyl-3,4-dihydro-1H-pyrido[4,3-b]indol-5(2H)-yl)-2-(pyrazin-2-yl)propan-2-ol], the inhibition at 0.1 µM in assay [1] was 30%.

`Cc1ccc2c(c1)c1c(n2CC(C)(O)c2ccncc2)CCN(CC(F)(F)F)C1` (stereo not drawn) [Compound 1-29, 1-(8-methyl-2-(2,2,2-trifluoroethyl)-3,4-dihydro-1H-pyrido[4,3-b]indol-5(2H)-yl)-2-(pyridin-4-yl)propan-2-ol]: the inhibition at 0.1 µM in assay [1] amounted to 11%; in assay [2], 3%; in assay [3] it was 2%; in assay [4] it was 2%.

With `Cc1ccc2c(c1)c1c(n2CC(C)(O)c2ccncc2)CCN(C2CC2)C1` (stereo not drawn) [Compound 1-30, 1-(2-cyclopropyl-8-methyl-3,4-dihydro-1H-pyrido[4,3-b]indol-5(2H)-yl)-2-(pyridin-4-yl)propan-2-ol], the inhibition at 0.1 µM in assay [1] was 14%; in assay [2] it was 4%; in assay [3], 6%; in assay [4] it was 1%.

For `COc1cccc2c3c(n(CC(C)(O)c4ccncc4)c12)CCN(C)C3` (stereo not drawn) [Compound 1-31, 1-(6-methoxy-2-methyl-3,4-dihydro-1H-pyrido[4,3-b]indol-5(2H)-yl)-2-(pyridin-4-yl)propan-2-ol], the inhibition at 0.1 µM in assay [1] is 8%; in assay [2], 5%; in assay [3], -1%; in assay [4], -7%.

Turning to `CC(C)c1ccc2c3c(n(CC(C)(O)c4ccncc4)c2c1)CCN(C)C3` (stereo not drawn) [Compound 1-32, 1-(7-isopropyl-2-methyl-3,4-dihydro-1H-pyrido[4,3-b]indol-5(2H)-yl)-2-(pyridin-4-yl)propan-2-ol], the inhibition at 0.1 µM is -6% in assay [1], -6% in assay [2], 31% in assay [3] and -1% in assay [4].

As for `Cc1ccc2c(c1)c1c(n2CC(C)(O)c2ccncc2)CC(C)N(C)C1` (stereo not drawn) [Compound 1-33, 2-(pyridin-4-yl)-1-(2,3,8-trimethyl-3,4-dihydro-1H-pyrido[4,3-b]indol-5(2H)-yl)propan-2-ol], the inhibition at 0.1 µM in assay [1] is 43%; in assay [2], 56%; in assay [3], 40%; in assay [4], -1%.

As to `Cc1ccc2c(c1)c1c(n2CC(C)(O)c2ccncc2)CCN(C)C1` (stereo not drawn) [Compound 1-52, 1-(1,2,3,4-tetrahydro-2,8-dimethylpyrido[4,3-b]indol-5-yl)-2-(pyridin-4-yl)propan-2-ol], in assay [1], the inhibition at 1 µM stood at 88%.

For `CN1CCc2c(c3cc(Cl)ccc3n2CC(C)(O)c2cccnc2)C1` (stereo not drawn) [Compound 1-54, 1-(8-chloro-1,2,3,4-tetrahydro-2-methylpyrido[4,3-b]indol-5-yl)-2-(pyridin-3-yl)propan-2-ol], in assay [1], the inhibition at 1 µM came to 77%.

In the case of `COc1ccc(C(C)(O)Cn2c3c(c4cc(Cl)ccc42)CN(C)CC3)cc1F` (stereo not drawn) [Compound 1-59, 1-(8-chloro-1,2,3,4-tetrahydro-2-methylpyrido[4,3-b]indol-5-yl)-2-(3-fluoro-4-methoxyphenyl)propan-2-ol], in assay [1], the inhibition at 1 µM amounted to 96%.
